Data from patent US20240307374A1, “FORMULATION OF FURIN INHIBITOR FOR INHALATION” (BP ASSET V, INC., priority 2021, published 2024).
Where a name gives a salt, the structure may show the parent alone. Read-outs that look alike come from different tables or passages of the source. Marks after values point to notes of the source that are not given here.

Assays:
Format in all cases: physicochemical
[1] = DVS (dynamic vapor sorption) moisture uptake; conditions: XRPD before and after DVS
Method: (FIG. 5). Sample weight decreased rapidly when humidity decreased from 10% to 0%, which might be caused by loss of crystalline water.
DVS was measured via a SMS (Surface Measurement Systems) DVS Intrinsic.

Grinding stability = conditions: ~30 mg ground manually in a mortar for about 5 minutes
[2] = Equilibrium solubility in pH buffers (3.0-8.0), 20% captisol and water; conditions: 24 hrs; for S: solubility: RT
Method: Additional solids were added into the sample to generate suspension if clear solution obtained. The suspension was equilibrated via stirring (1000 rpm). The suspension was centrifuged to obtain precipitate and supernatants.
Solubility and pH were tested for the supernatants after filtration, and isolated precipitate was tested by XRPD.
(§1) • 1. pH=3.0 buffer (50 mM HCl+KCl): Weigh 365.39 mg KCl into a 100 mL volumetric flask (VF), and add 0.1 mL 1M HCl into the VF, and dilute to volume with water. • 2. pH=4.0 buffer (50 mM citrate): Weigh 56.74 mg citric acid and 60.18 mg trisodium citrate into a 10 mL volumetric flask, and dilute to volume with water. • 3. pH=5.0 buffer (50 mM citrate) Weigh 11.12 mg citric acid and 95.38 mg trisodium citrate into a 10 mL volumetric flask, and dilute to volume with water. • 4. pH=6.0 buffer (50 mM citrate) Weigh 11.04 mg citric acid and 130.2 mg trisodium citrate into a 10 mL volumetric flask, and dilute to volume with water. • 5. pH=6.0 buffer (50 mM phosphate) Weigh 8.7 mg Na2HPO4 and 52.6 mg NaH2PO4 into a 10 mL volumetric flask, and dilute to volume with water. • 6. pH=7.0 buffer (50 mM phosphate) Weigh 23.47 mg Na2HPO4 and 43.34 mg NaH2PO4into a 10 mL volumetric flask, and dilute to volume with water. • 7. pH=8.0 buffer (50 mM phosphate) Weigh 31.64 mg Na2HPO4 and 67.18 mg NaH2PO4into a 10 mL volumetric flask, and dilute to volume with water.

[3] = Equilibrium solubility in pH buffers (pH 4.0-6.0) with pH adjustment; conditions: for S: solubility: RT, with pH adjustment; for pH before adjustment (in brackets): 24 hours
Method: In details, ˜5 mg of solids were suspended into 1 mL of each medium with dosing conc. at ˜5 mg/mL. Additional solids were added into the sample to generate suspension if clear solution was obtained. The suspension was equilibrated via stirring (1000 rpm) for 24 hours. The pH of the suspension was adjusted when the final pH shifted above 0.3, and the samples were stirred for another 1.5 hours after pH adjustment. The suspension was centrifuged to obtain precipitate and supernatants. Solubility, purity and pH were tested for the supernatants after filtration, and isolated precipitate was tested by XRPD.
as §1

[4] = Solubility profile of freeform Type D in citrate buffers; conditions: aqueous citrate buffer, aqueous buffer; citrate salt prepared in situ, summary statement; read-out: aqueous solubility
Method: Additional solids were added into the sample to generate suspension if clear solution was obtained. The suspension was equilibrated via stirring (1000 rpm) for 24 hours. The suspension was centrifuged to obtain precipitate and supernatants. Solubility and pH were tested for the supernatants after filtration, and the isolated precipitate was tested by XRPD.

[5] = Formulation solution stability experiments at 5° C.; conditions: thermodynamic from solid; for solubility at 2 days: aqueous buffer, 5° C., read-out: citrate solubility (supernatant concentration)
Method: The five formulations are shown in Table 7-2, and the characterization results are summarized in Example 7. The procedure is summarized below. • 1. […] Add about 149 mg citric acid into the volumetric flask of formulation 1/2/3/4. • 3. Add about 2037 mg of the corresponding sugar into the volumetric flask of formulation 2/3/4. […] Dilute to volume with water for formulation 1/2/3/4. • 5. Dilute to volume with pH=4.0 citrate/phosphate buffer for formulation 5. […] Sonicate the samples for about 2 mins, and filter with 0.45 µm filter to obtain a clear solution. • 7. Fill and seal about 0.7 mL solutions into 32 separate HPLC vials per each formulation and store under corresponding conditions.
The stability samples were stored at 5° C., 25° C., 40° C. and 60° C. for 28 days. After 1 day, 3 days, 7 days, 14 days and 28 days storage, the stability samples at 25° C., 40° C. and 60° C. were taken out for HPLC and pH tests. After 28 days storage, the stability samples at 5° C. were taken out for HPLC and pH tests.
Some of the stability samples at 5° C. became a suspension after storage for 37 days. The samples were then stirred (1000 rpm) at 5° C. for two days, resulting in all samples becoming a suspension. Three of the samples under each condition were characterized to determine the identity of precipitate, solubility of citrate salt at 5° C., and stability at 5° C. • 1. Sample 1 of formulations 1/2/3/4/5 after stirring was isolated, XPRD/^1H NMR of the solid was obtained, and purity/assay/concentration/pH of the supernatant were tested. • 2. Sample 2 of formulations 1/2/3/4/5 after stirring was stored at RT for about 1 hour, and the solid dissolved. Purity/assay/concentration of the solution was tested. • 3. Sample 3 of formulations 1/2/3/4/5 after stirring was sonicated at RT for about 2-3 mins, and the solid dissolved.

[6] = pH = 3.0 buffer (50 mM HCl + KCl)
[7] = pH = 4.0 buffer (50 mM citrate)
[8] = pH = 5.0 buffer (50 mM citrate)
[9] = pH = 6.0 buffer (50 mM citrate)
[10] = pH = 7.0 buffer (50 mM phosphate)
[11] = pH = 8.0 buffer (50 mM phosphate)
[12] = pH = 6.0 buffer (50 mM phosphate)

In the case of `CC(=O)NCC1CCN(Cc2cc(Oc3ccc(N4CCN(CCC(=O)O)CC4)nc3)nc(-c3cc(Cl)cc(Cl)c3)c2)CC1` [Sulfate Type B], the “form change after DVS test (XRPD)” value [1] is reported as “Two additional peaks”, the “crystallinity after grinding (XRPD)” value (Grinding stability) is reported as “decreased after grinding” and the “pH of supernatant (final pH)” value ([2]; 20% Captisol (pH = 5.0, w/v)) is reported as 2.6. For the same molecule, the “S: solubility” value ([2]; 20% Captisol (pH = 5.0, w/v)) was >44.5^1 mg/mL, the “FC: form change (XRPD of precipitate)” value ([2]; H2O) was “N (N: solid form not changed)” and the “pH of supernatant (final pH)” value ([2]; H2O) was 2.4. The “S: solubility” value ([2]; H2O) was 1.97 mg/mL, the “FC: form change (XRPD of precipitate)” value [2, 6] was 1 (1/2/3/4/5: new Form 1/2/3/4/5) and the “pH of supernatant (final pH)” value [2, 6] was 2.3. For the same molecule, the “S: solubility” value [2, 6] was 8.00 mg/mL, the “FC: form change (XRPD of precipitate)” value [2, 7] was “Low (Low: low crystallinity)” and the “pH of supernatant (final pH)” value [2, 7] was 3.8. The “S: solubility” value [2, 7] was 2.33 mg/mL, the “FC: form change (XRPD of precipitate)” value [2, 8] was 3 (1/2/3/4/5: new Form 1/2/3/4/5) and the “pH of supernatant (final pH)” value [2, 8] was 4.4. For the same molecule, the “S: solubility” value [2, 8] was 1.66* mg/mL, the “FC: form change (XRPD of precipitate)” value [2, 9] was 3 (1/2/3/4/5: new Form 1/2/3/4/5) and the “pH of supernatant (final pH)” value [2, 9] was 4.3. The “S: solubility” value [2, 9] was 0.93* mg/mL, the “FC: form change (XRPD of precipitate)” value [2, 10] was 2 (1/2/3/4/5: new Form 1/2/3/4/5) and the “pH of supernatant (final pH)” value [2, 10] was 5.6. The “S: solubility” value [2, 10] was 0.61* mg/mL, the “pH of supernatant (final pH)” value [2, 11] was 6.9 and the “S: solubility” value [2, 11] was 0.04* mg/mL. The “Area % (purity of supernatant)” value [3, 7] was 99.2 Area %, the “FC: form change (XRPD of precipitate)” value [3, 7] was “Low (Low; low crystallinity)” and the “pH (final, after adjustment where adjusted)” value [3, 7] was 3.9. For the same molecule, the “S: solubility” value [3, 7] was 2.29 mg/mL, the “Area % (purity of supernatant)” value [3, 8] was 99.4 Area % and the “FC: form change (XRPD of precipitate)” value [3, 8] was 3 (3/4/6/7/8: new Form 3/4/6/7/8). The “pH (final, after adjustment where adjusted)” value [3, 8] was 5.0*, the “pH before adjustment (in brackets)” value [3, 8] was “(4.5)” and the “S: solubility” value [3, 8] was 6.82^# mg/mL. The “Area % (purity of supernatant)” value [3, 9] was 92.6 Area %, the “FC: form change (XRPD of precipitate)” value [3, 9] was 6 (3/4/6/7/8: new Form 3/4/6/7/8) and the “pH (final, after adjustment where adjusted)” value [3, 9] was 6.1*. For the same molecule, the “pH before adjustment (in brackets)” value [3, 9] was “(4.4)”, the “S: solubility” value [3, 9] was 0.07 mg/mL and the “Area % (purity of supernatant)” value [3, 12] was 88.2 Area %. For the same molecule, the “pH (final, after adjustment where adjusted)” value [3, 12] was 6.2*, the “pH before adjustment (in brackets)” value [3, 12] was “(3.0)” and the “S: solubility” value [3, 12] was 0.06 mg/mL.
With `CC(=O)NCC1CCN(Cc2cc(Oc3ccc(N4CCN(CCC(=O)O)CC4)nc3)nc(-c3cc(Cl)cc(Cl)c3)c2)CC1` [citrate salt] the solubility at 24 h [4] was > 50 mg/mL, the solubility at 2 days ([5]; formulation solution with sugar (supernatant), presence of sugars, lowest value) was 10.4 mg/mL and the solubility at 2 days ([5]; formulation solution without sugars (supernatant), without sugars) was 16.9 mg/mL. For the same molecule, the solubility ([5]; formulation solutions 1/2/3/4/5, aqueous buffer, rt, all solids dissolved once warmed up, read-out: solubility of citrate salt) was > 20 mg/mL.
